Reference: publication PMC10436262, “Structure-Based Design of Inhibitors of the m^6A-RNA Writer Enzyme METTL3” (ACS Bio & Med Chem Au, 2023)
Values joined by “and” are separate entries in the source; they are usually repeats but may differ in a detail not shown here. Identical values can stand only once. Like-named read-outs stand apart in the source and are kept apart here.

Target: T1, METTL3/METTL14 (Homo sapiens, UniProt Q86U44)
T1 construct: made in house; host or cells: Sf9 insect cells (baculovirus)
T1 sequence (Q86U44 whole entry): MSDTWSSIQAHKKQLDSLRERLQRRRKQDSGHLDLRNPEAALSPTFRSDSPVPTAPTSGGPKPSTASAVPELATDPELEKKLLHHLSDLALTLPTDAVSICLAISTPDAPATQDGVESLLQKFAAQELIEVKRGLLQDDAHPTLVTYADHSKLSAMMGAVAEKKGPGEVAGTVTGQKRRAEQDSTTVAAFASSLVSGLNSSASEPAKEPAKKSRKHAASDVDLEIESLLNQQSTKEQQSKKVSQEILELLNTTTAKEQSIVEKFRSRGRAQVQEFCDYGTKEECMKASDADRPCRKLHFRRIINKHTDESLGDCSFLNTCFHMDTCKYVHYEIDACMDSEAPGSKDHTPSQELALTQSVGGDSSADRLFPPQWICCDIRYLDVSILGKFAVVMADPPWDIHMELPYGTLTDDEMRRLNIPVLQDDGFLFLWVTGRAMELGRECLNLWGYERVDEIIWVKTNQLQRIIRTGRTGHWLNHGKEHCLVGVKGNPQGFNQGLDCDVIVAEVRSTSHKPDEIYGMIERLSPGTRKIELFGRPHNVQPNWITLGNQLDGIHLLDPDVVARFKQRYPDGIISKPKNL
T1 sequence (Q9HCE5 whole entry partner): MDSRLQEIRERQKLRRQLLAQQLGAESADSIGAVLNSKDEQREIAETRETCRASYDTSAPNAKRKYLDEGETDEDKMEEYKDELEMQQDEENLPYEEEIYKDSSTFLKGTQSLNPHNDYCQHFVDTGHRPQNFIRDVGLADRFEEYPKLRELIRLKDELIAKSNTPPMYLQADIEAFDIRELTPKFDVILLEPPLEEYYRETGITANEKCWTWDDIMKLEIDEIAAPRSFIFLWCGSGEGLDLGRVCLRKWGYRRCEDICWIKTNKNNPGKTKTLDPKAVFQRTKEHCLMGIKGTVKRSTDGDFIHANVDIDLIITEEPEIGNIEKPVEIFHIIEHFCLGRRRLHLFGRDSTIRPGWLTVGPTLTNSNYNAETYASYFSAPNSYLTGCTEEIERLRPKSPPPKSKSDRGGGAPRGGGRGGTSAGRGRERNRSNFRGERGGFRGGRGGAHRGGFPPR
Assay: METTL3 enzymatic inhibition assay by homogeneous time-resolved fluorescence (HTRF)
Assay type: biochemical
Settings: for IC50: HTRF assay; for fold improvement in affinity (IC50) vs compound 4: relative to reference compound 4; for S/R Ratio: ratio of IC50 of S isomer to R isomer
Description: Compound potencies were evaluated by using a previously reported METTL3 inhibition assay. […] Tested compounds that inhibit METTL3 decrease the m^6A level and thus reduce the HTRF signal. The biochemical assay was performed, as described previously.[19] The IC50 values derived from fitting a dose–response curve to the data using nonlinear regression. The IC50 values are given as an average of at least two independent measurements for each compound in the text.

[1] = racemic mixture, read-out: IC50
[2] = R isomer, read-out: IC50 (µM) R
[3] = S isomer, read-out: IC50 (µM) S

IC50 [1] [µM] | Compound | further results
430 | CNc1cc(N2CCCC(O)(CNC(=O)c3ccc(CN4CCCCC4)cc3)C2)ncn1 (stereo not shown) [compound 1] | –
179 | CNc1cc(N2CCCC(O)(CNC(=O)c3ccc(CN4CCNCC4)cc3)C2)ncn1 (stereo not shown) [compound 5] | –
42 | CNc1cc(N2CCCC(O)(CNC(=O)c3ccc(CN4CCC(C)(N)CC4)cc3)C2)ncn1 (stereo not shown) [compound 7] | –
32 | CNc1cc(N2CCCC(O)(CNC(=O)c3ccc(CN4CCC(C)(CN)CC4)cc3)C2)ncn1 (stereo not shown) [compound 8] | –
2.1 | CC1(C)CCN(Cc2ccc(C(=O)NCC3(O)CCCN(c4cc(NCc5cccc6nc[nH]c56)ncn4)C3)cc2)CC1 (stereo not shown) [compound 9] | –
0.77 | CC1(C)CCN(Cc2ccc(C(=O)NCC3(O)CCCN(c4cc(NCc5cccc6ccccc56)ncn4)C3)cc2)CC1 (stereo not shown) [compound 15] | fold improvement in affinity (IC50) vs compound 4: 10 fold
3.3 | O=C(NCC1(O)CCCN(c2cc(NCc3ccccc3)ncn2)C1)c1ccc(CN2CCC3(CC2)CC3)cc1 (stereo not shown) [compound 17] | –
4.7 | CCC1(C)CCN(Cc2ccc(C(=O)NCC3(O)CCCN(c4cc(NCc5ccccc5)ncn4)C3)cc2)CC1 (stereo not shown) [compound 18] | –
5.5 | CCCCC1(C)CCN(Cc2ccc(C(=O)NCC3(O)CCCN(c4cc(NCc5ccccc5)ncn4)C3)cc2)CC1 (stereo not shown) [compound 19] | –
23 | CC(F)C1CCN(Cc2ccc(C(=O)NCC3(O)CCCN(c4cc(NCc5ccccc5)ncn4)C3)cc2)CC1 (stereo not shown) [compound 21] | –
23 | CC1(F)CC12CCN(Cc1ccc(C(=O)NCC3(O)CCCN(c4cc(NCc5ccccc5)ncn4)C3)cc1)CC2 (stereo not shown) [compound 22] | –
> 10 | CCCCN(Cc1ccc(C(=O)NCC2(O)CCCN(c3cc(NCc4ccccc4)ncn3)C2)cc1)C1CCCCC1 (stereo not shown) [compound 26] | –
9.3 | CC1(C)CN(Cc2ccc(C(=O)NCC3(O)CCCN(c4cc(NCc5ccccc5)ncn4)C3)cc2)C1 (stereo not shown) [compound 27] | –
7.4 | CCC(CC)CNCc1ccc(C(=O)NCC2(O)CCCN(c3cc(NCc4ccccc4)ncn3)C2)cc1 (stereo not shown) [compound 28] | –
1.6 | O=C(NCC1(O)CCCN(c2cc(NCc3ccccc3)ncn2)C1)c1ccc(CN2CC3(CCC3)C2)cc1 (stereo not shown) [compound 29] | IC50 [2]: 0.53 µM; IC50 [3]: 1.3 µM; S/R Ratio: 2.5
0.13 | CC(C)C1N(Cc2ccc(C(=O)NCC3(O)CCCN(c4cc(NCc5ccccc5)ncn4)C3)cc2)CC12CCC2 (stereo not shown) [compound 30] | –
7.7 | O=C(NCC1(O)CCCN(c2cc(NCc3ccccc3)ncn2)C1)c1ccc(CN2CC3(CCCC3)C2)cc1 (stereo not shown) [compound 32] | –
5.1 | CC(C)CNCc1ccc(C(=O)NCC2(O)CCCN(c3cc(NCc4ccccc4)ncn3)C2)cc1 (stereo not shown) [compound 33] | –
17.7 | CC(C)CCNCc1ccc(C(=O)NCC2(O)CCCN(c3cc(NCc4ccccc4)ncn3)C2)cc1 (stereo not shown) [compound 34] | –
5 | CC(C)(C)CNCc1ccc(C(=O)NCC2(O)CCCN(c3cc(NCc4ccccc4)ncn3)C2)cc1 (stereo not shown) [compound 35] | –
5.2 | O=C(NCC1(O)CCCN(c2cc(NCc3ccccc3)ncn2)C1)c1ccc(CNCC2CCC2)cc1 (stereo not shown) [compound 36] | –
14 | O=C(NCC1(O)CCCN(c2cc(NCc3ccccc3)ncn2)C1)c1ccc(CN2CCCCC2)cc1 (stereo not shown) [compound 40] | –
8.4 | O=C(NCC1(O)CCCN(c2cc(NCc3ccccc3)ncn2)C1)c1ccc(CN2CCCC3CCCCC32)cc1 (stereo not shown) [compound 42] | –
10 | CC1(C)CCN(Cc2ccc(C(=O)NCC3(O)CCCN(c4cc(NCc5ccccc5)ncn4)C3)cn2)CC1 (stereo not shown) [compound 45] | –
2.9 | CC1(C)CCN(Cc2ccc3nc(CC4(O)CCCN(c5cc(NCc6ccccc6)ncn5)C4)[nH]c3c2)CC1 (stereo not shown) [compound 47] | –
5.1 | CC1(C)CCN(Cc2ccc(N3CC4(CCN(c5cc(NCc6ccccc6)ncn5)CC4)OCC3=O)cn2)CC1 [compound 48] | –
0.27 | CC(C)C1N(Cc2ccc(C(=O)NCC3(O)CCCN(c4cc(NCc5ccccc5)ncn4)C3)c(O)c2)CC12CCC2 (stereo not shown) [compound 50] | –
0.84 | O=C(NCC1(O)CCCN(c2cc(NCc3ccccc3)ncn2)C1)c1ccc(CN2CC3(CCC3)C2C2CC2)cc1O (stereo not shown) [compound 53] | –

The remaining lines, values behind:

Compound | IC50 [1] [µM] | further results
CNc1cc(N2CCCC(O)(CNC(=O)c3ccc(CN4CCC(C)CC4)cc3)C2)ncn1 (stereo not shown) [compound 3] | 16 | –
CNc1cc(N2CCCC(O)(CNC(=O)c3ccc(CN4CCC(C)(C)CC4)cc3)C2)ncn1 (stereo not shown) [compound 4] | 8.2 | fold improvement in affinity (IC50) vs compound 1 (relative to hit compound 1): 50 fold and 52.4 fold
CCC1CCN(Cc2ccc(C(=O)NCC3(O)CCCN(c4cc(NC)ncn4)C3)cc2)CC1 (stereo not shown) [compound 6] | 230 | –
CC1(C)CCN(Cc2ccc(C(=O)NCC3(O)CCCN(c4cc(NCc5cccc6sccc56)ncn4)C3)cc2)CC1 (stereo not shown) [compound 10] | 0.82 | fold improvement in affinity (IC50) vs compound 4: 10 fold
CC1(C)CCN(Cc2ccc(C(=O)NCC3(O)CCCN(c4cc(NCc5ccoc5)ncn4)C3)cc2)CC1 (stereo not shown) [compound 11] | > 10 | –
CC1(C)CCN(Cc2ccc(C(=O)NCC3(O)CCCN(c4cc(NCc5ccsc5)ncn4)C3)cc2)CC1 (stereo not shown) [compound 12] | 1.8 | –
CC(Nc1cc(N2CCCC(O)(CNC(=O)c3ccc(CN4CCC(C)(C)CC4)cc3)C2)ncn1)c1ccccc1 (stereo not shown) [compound 13] | 12 | –
CC1(C)CCN(Cc2ccc(C(=O)NCC3(O)CCCN(c4cc(NC(C)(C)c5ccccc5)ncn4)C3)cc2)CC1 (stereo not shown) [compound 14] | 31 | –
CC1(C)CCN(Cc2ccc(C(=O)NCC3(O)CCCN(c4cc(NCc5ccccc5)ncn4)C3)cc2)CC1 (stereo not shown) [compound 16] | 1.7 | IC50 [2]: 1.2 µM; IC50 [3]: 7.1 µM; fold difference in activity between R and S configurations (R more active than S): ~6 fold; S/R Ratio: 5.9; fold improvement in affinity (IC50) vs compound 4: 4.8 fold
CC1(CCO)CCN(Cc2ccc(C(=O)NCC3(O)CCCN(c4cc(NCc5ccccc5)ncn4)C3)cc2)CC1 (stereo not shown) [compound 20] | 17.6 | –
CC(C)C1(O)CN(Cc2ccc(C(=O)NCC3(O)CCCN(c4cc(NCc5ccccc5)ncn4)C3)cc2)C1 (stereo not shown) [compound 23] | 15 | –
CC1(O)CCN(Cc2ccc(C(=O)NCC3(O)CCCN(c4cc(NCc5ccccc5)ncn4)C3)cc2)CC1 (stereo not shown) [compound 24] | 8.4 | –
CCCN(Cc1ccc(C(=O)NCC2(O)CCCN(c3cc(NCc4ccccc4)ncn3)C2)cc1)C1CCCC1 (stereo not shown) [compound 37] | > 10 | –
CCCN(Cc1ccc(C(=O)NCC2(O)CCCN(c3cc(NCc4ccccc4)ncn3)C2)cc1)C1CCCCC1 (stereo not shown) [compound 38] | > 10 | –
CCCCN(Cc1ccc(C(=O)NCC2(O)CCCN(c3cc(NCc4ccccc4)ncn3)C2)cc1)C1CCCC1 (stereo not shown) [compound 39] | > 10 | –
CC1CCN(Cc2ccc(C(=O)NCC3(O)CCCN(c4cc(NCc5ccccc5)ncn4)C3)cc2)C2CCCCC12 (stereo not shown) [compound 41] | 12 | –
CSc1cc(CN2CCC(C)(C)CC2)ccc1C(=O)NCC1(O)CCCN(c2cc(NCc3ccccc3)ncn2)C1 (stereo not shown) [compound 44] | 1.1 | –
CC1(C)CCN(Cc2ccc3c(NCC4(O)CCCN(c5cc(NCc6ccccc6)ncn5)C4)cccc3c2)CC1 (stereo not shown) [compound 46] | 0.36 | IC50 [2]: 0.2 µM; IC50 [3]: 12 µM; S/R Ratio: 60.0; fold improvement in affinity (IC50) vs compound 16 (relative to reference compound 16): 5 fold and 4.7 fold
CC1(C)CCN(CCCCC(=O)NCC2(O)CCCN(c3cc(NCc4ccccc4)ncn3)C2)CC1 (stereo not shown) [compound 49] | 60 | –
CNC(=O)c1cccc(CNc2cc(N3CCCC(O)(CNC(=O)c4ccc(CN5CCC(C)(C)CC5)cc4O)C3)ncn2)c1 (stereo not shown) [compound 51] | 0.19 | –
CC1(C)CCN(Cc2ccc(C(=O)NCC3(O)CCCN(c4cc(NCc5cccc(S(N)(=O)=O)c5)ncn4)C3)c(O)c2)CC1 (stereo not shown) [compound 52] | 0.3 | –
